The text below walks through data of US5916586A, “Personal cleansing system comprising polymeric diamond-mesh bath sponge and liquid cleanser with deodorant composition” (priority 1996, dated 1999).

Series [1] has as its target T1, lipoxidase (ECI.13.1.13) (Glycine max, UniProt P08170).
T1 sequence (P08170 1-839): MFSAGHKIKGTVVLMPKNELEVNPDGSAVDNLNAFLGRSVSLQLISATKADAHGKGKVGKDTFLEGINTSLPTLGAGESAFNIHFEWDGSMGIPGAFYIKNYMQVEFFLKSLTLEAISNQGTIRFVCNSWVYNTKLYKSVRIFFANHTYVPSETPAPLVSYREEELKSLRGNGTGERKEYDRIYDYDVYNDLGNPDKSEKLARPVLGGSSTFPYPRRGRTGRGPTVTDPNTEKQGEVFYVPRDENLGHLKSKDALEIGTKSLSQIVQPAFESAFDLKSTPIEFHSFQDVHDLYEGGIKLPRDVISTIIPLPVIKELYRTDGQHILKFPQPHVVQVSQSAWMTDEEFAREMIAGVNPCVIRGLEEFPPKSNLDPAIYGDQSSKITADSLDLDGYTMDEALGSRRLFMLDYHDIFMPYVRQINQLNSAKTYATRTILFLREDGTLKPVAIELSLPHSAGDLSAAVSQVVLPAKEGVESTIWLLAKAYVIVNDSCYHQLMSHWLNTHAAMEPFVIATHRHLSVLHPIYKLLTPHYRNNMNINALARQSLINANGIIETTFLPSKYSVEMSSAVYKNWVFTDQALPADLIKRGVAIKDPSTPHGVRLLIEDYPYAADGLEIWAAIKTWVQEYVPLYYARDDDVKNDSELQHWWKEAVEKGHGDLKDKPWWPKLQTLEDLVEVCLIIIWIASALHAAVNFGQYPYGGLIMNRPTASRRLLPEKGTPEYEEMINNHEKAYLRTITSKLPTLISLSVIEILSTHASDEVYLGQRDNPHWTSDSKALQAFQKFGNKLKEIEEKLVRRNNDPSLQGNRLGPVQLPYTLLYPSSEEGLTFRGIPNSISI
In words: Lipoxidase test: inhibition of oxidation of linoleic acid by lipoxidase. The settings on record: test substrate made with 0.5% by weight solution of material in ethanol, borate buffer pH 9.0, increase in OD at 234 nm. In kind it is biochemical.

The nature of series [2]: Morpholine test: depression of partial vapor pressure of morpholine beyond Raoult's Law (headspace GC). The following applies: morpholine 0.25 g + material 1 g, 37° C., 30 minutes equilibrium, headspace gas chromatography.

In the case of `COC(=O)c1c(C)cc(O)c(C)c1O` [LRG 201], the “LIC (lipoxidase-inhibiting capacity, % inhibition)” value in series [1] came out at 100%. For the same compound, the “RVR (Raoult variance ratio)” value in series [2] was 1.21.
